From ChEMBL document CHEMBL3045875, “Design, synthesis, and biological evaluation studies of novel quinazolinone derivatives as anticonvulsant agents” (Med Chem Res, 2013) come the findings set out here.

The subject of data set [1] is Mus musculus. Nature of the data set: Anticonvulsant activity in Swiss albino Mus musculus (mouse) assessed as protection against Maximal electric shock-induced seizures at 0.5 mmol/kg, ip administered 30 min prior to electric shock-challenge relative to control. In kind it is functional.
Data set [2] deals with Mus musculus. Nature of the data set: Anticonvulsant activity in Swiss albino Mus musculus (mouse) assessed as protection against PTZ-induced seizures at 0.5 mmol/kg, i.p. administered 30 min prior to PTZ-challenge relative to control. It counts as functional.
Data set [3] has as its system Mus musculus. Nature of the data set: Anticonvulsant activity in ip dosed Swiss albino Mus musculus (mouse) assessed as protection against PTZ-induced seizures administered 30 min prior to PTZ-challenge. It counts as functional.
The species named for data set [4] is Mus musculus. As to the kind of experiment: Protective index, ratio of TD50 to ED50 in Swiss albino Mus musculus (mouse).
Data set [5] can be described thus: Therapeutic index, ratio of LD50 to ED50 in Swiss albino Mus musculus (mouse). In kind it is organism-based. To be noted: in vivo, read-out: Ratio LD50/ED50.
Data set [6] can be described thus: Toxicity in ip dosed Swiss albino Mus musculus (mouse) assessed as mortality. The settings on record: in vivo. In kind it is organism-based.
A short description of data set [7]: Neurotoxicity in ip dosed Swiss albino Mus musculus (mouse) after 4 hr by rotarod test. It counts as toxicity, organism-based. The settings on record: in vivo. (Falling from the rotarod earlier than controls is read as motor impairment.)
The test system of data set [8] is Mus musculus. As to the kind of experiment: Anticonvulsant activity in Swiss albino Mus musculus (mouse) assessed as protection against Maximal electric shock-induced seizures at 1.8 mmol/kg, ip administered 30 min prior to electric shock-challenge relative to control. It counts as functional.
Data set [9] relates to Mus musculus. Nature of the data set: Anticonvulsant activity in Swiss albino Mus musculus (mouse) assessed as protection against PTZ-induced seizures at 1.8 mmol/kg, i.p. administered 30 min prior to PTZ-challenge relative to control. It counts as functional.
Data set [10] has as its system Mus musculus. Nature of the data set: Anticonvulsant activity in Swiss albino Mus musculus (mouse) assessed as protection against Maximal electric shock-induced seizures at 0.8 mmol/kg, ip administered 30 min prior to electric shock-challenge relative to control. In kind it is functional.
Data set [11] relates to Mus musculus. As to the kind of experiment: Anticonvulsant activity in Swiss albino Mus musculus (mouse) assessed as protection against PTZ-induced seizures at 0.8 mmol/kg, i.p. administered 30 min prior to PTZ-challenge relative to control. In kind it is functional.

On to `Cc1nc2c(I)cc(I)cc2c(=O)n1Cc1cccc([N+](=O)[O-])c1`, for which the Activity was 66% in the data set on Mus musculus [1] and 100% in the data set with Mus musculus [2].
As for `Cc1nc2c(I)cc(I)cc2c(=O)n1Cc1cccc(C(F)(F)F)c1`, the Activity is 33% in the data set on Mus musculus [1] and 50% in the data set on Mus musculus [2].
Regarding `Cc1nc2c(I)cc(I)cc2c(=O)n1Cc1ccc(F)cc1`, in the data set on Mus musculus [3], the ED50 came out at 160 mg/kg. Besides, the Activity in the data set on Mus musculus [1] and with Mus musculus [2] was 100% throughout. Further, the “Ratio TD50/ED50” value in the data set listed under Mus musculus [4] is reported as 2.25. Moreover, the selectivity ratio in data set [5] is 2.62. Besides, in [6], the LD50 amounted to 420 mg/kg. Besides, in [7], the TD50 at 4 h was 360 mg/kg.
As to `Cc1nc2c(I)cc(I)cc2c(=O)n1Cc1ccc(Cl)c(Cl)c1`, the Activity with Mus musculus [1] and with Mus musculus [2] was 66% in each case.
`Cc1nc2c(I)cc(I)cc2c(=O)n1Cc1ccc(Br)cc1`: in the data set on Mus musculus [3], the ED50 was found to be 138 mg/kg. Moreover, the Activity in the data set on Mus musculus [1] and with Mus musculus [2] was 100% each time. The “Ratio TD50/ED50” value in the data set filed under Mus musculus [4] was 2.39. Also, the selectivity ratio in [5] came out at 4.09. Moreover, in data set [6], the 50% lethal dose (LD50) amounted to 565 mg/kg. This compound gave a TD50 at 4 h in data set [7] of 330 mg/kg.
As for `Cc1nc2c(I)cc(I)cc2c(=O)n1Cc1ccc(I)cc1`, the Activity in the data set with Mus musculus [1] and in the data set on Mus musculus [2] was 66% throughout.
`Cc1nc2c(I)cc(I)cc2c(=O)n1Cc1cccc(Cl)c1`: the Activity with Mus musculus [1] is listed as 66%; with Mus musculus [2] it was 100%.
For the compound `CCCC(CCC)C(=O)[O-].[Na+]` [VALPROATE SODIUM], the ED50 with Mus musculus [3] is 300 mg/kg. In addition, the Activity in the data set with Mus musculus [8] and with Mus musculus [9] was 100% throughout. The TD50 at 4 h in data set [7] stood at 450 mg/kg.
As to `Cc1ccccc1-n1c(C)nc2ccccc2c1=O` [METHAQUALONE], the ED50 in the data set with Mus musculus [3] was 200 mg/kg. Besides, the Activity in the data set with Mus musculus [10] and with Mus musculus [11] was 100% throughout. The “Ratio TD50/ED50” value in the data set listed under Mus musculus [4] stood at 2. The TD50 at 4 h in [7] turned out to be 400 mg/kg.
For the compound `Cc1ccc(Cn2c(C)nc3c(I)cc(I)cc3c2=O)cc1`, the Activity amounted to 33% in the data set on Mus musculus [1] and 50% with Mus musculus [2].
On the same counts, the results for `Cc1nc2ccc(I)cc2c(=O)n1Cc1ccc(Br)cc1` are 66% and 66%.
On the same counts, the results for `Cc1nc2c(I)cc(I)cc2c(=O)n1Cc1ccccc1` are 50% and 66%.
On the same counts, the results for `COc1ccc(Cn2c(C)nc3c(I)cc(I)cc3c2=O)cc1` are 33% and 66%.
`Cc1nc2ccccc2c(=O)n1Cc1ccc(Br)cc1`: the Activity with Mus musculus [1] and in the data set on Mus musculus [2] was 66% each time.
Take `Cc1nc2c(I)cc(I)cc2c(=O)n1-c1ccc(Br)cc1`: the Activity is given as 66% with Mus musculus [1] and 100% in the data set with Mus musculus [2].
On to `Cc1nc2c(I)cc(I)cc2c(=O)n1Cc1ccc(Cl)cc1`, for which, in the data set with Mus musculus [3], the median effective dose (ED50) was 150 mg/kg. Further, the Activity in the data set on Mus musculus [1] and in the data set on Mus musculus [2] was 100% throughout. In addition, the “Ratio TD50/ED50” value in the data set listed under Mus musculus [4] is reported as 1.87. The selectivity ratio in [5] was found to be 4. For the same compound, in data set [6], the LD50 was 600 mg/kg. In data set [7], this compound yielded a TD50 at 4 h of 280 mg/kg.

For orientation: ED50 means the dose that gives a 50% effect, or the effect in half of the subjects. The term LD50 denotes the dose at which mortality reaches 50%. A word on the TD50: it is the 50% point of the dose-response relation for the toxic effect studied.
